Experimental data from a compilation of properties of binary mixtures (doi:10.1021/acs.jced.2c00294).

Assay: xn = mol fraction of the nth substance listed
Details: 101 kPa

Which electrical conductivity (298 K, x2 = 0.5) does the source give for `CCCC[N+]1(C)CCCC1.N#C[N-]C#N` + CCCC[N+]1(C)CCCC1.O=S(=O)([N-]S(=O)(=O)C(F)(F)F)C(F)(F)F here?
Its electrical conductivity is 0.565 S/m.

And the viscosity (298 K, x2 = 0.5)?
Its viscosity is 51.3 mPa·s.

What about the electrical conductivity (303 K, x2 = 0.5) of the same molecule?
Its electrical conductivity is 0.642 S/m.

What about the viscosity (303 K, x2 = 0.5) of the same molecule?
The viscosity was 36.1 mPa·s.

And the electrical conductivity (308 K, x2 = 0.5)?
The electrical conductivity was 0.746 S/m.

What about the viscosity (308 K, x2 = 0.5) of the same molecule?
The viscosity was 32 mPa·s.

And the electrical conductivity (313 K, x2 = 0.5)?
The electrical conductivity was 0.857 S/m.

And the viscosity (313 K, x2 = 0.5)?
The viscosity was 26.7 mPa·s.

What about the viscosity (328 K, x2 = 0.5) of the same molecule?
Its viscosity is 17.06 mPa·s.

Which electrical conductivity (298 K, x2 = 0) does the source give for `CCCC[N+]1(C)CCCC1.N#C[N-]S(=O)(=O)C(F)(F)F` + [Li+].[N-](C#N)S(=O)(=O)C(F)(F)F here?
The electrical conductivity was 0.458 S/m.

And the viscosity (298 K, x2 = 0)?
The viscosity was 45.9 mPa·s.

What about the electrical conductivity (303 K, x2 = 0) of the same molecule?
Its electrical conductivity is 0.546 S/m.

What about the viscosity (303 K, x2 = 0) of the same molecule?
Its viscosity is 40.4 mPa·s.

And the electrical conductivity (318 K, x2 = 0)?
The electrical conductivity was 0.869 S/m.

What about the viscosity (318 K, x2 = 0) of the same molecule?
The viscosity was 24.6 mPa·s.

And the electrical conductivity (323 K, x2 = 0)?
The electrical conductivity was 1 S/m.

What about the viscosity (323 K, x2 = 0) of the same molecule?
Its viscosity is 21.5 mPa·s.

And the viscosity (328 K, x2 = 0)?
Its viscosity is 16.19 mPa·s.

With `N#C[N-]S(=O)(=O)C(F)(F)F.[Li+]` + CCCC[N+]1(CCCC1)C.[N-](C#N)S(=O)(=O)C(F)(F)F as the molecule, how does the electrical conductivity (298 K, x1 = 0.05) read?
Its electrical conductivity is 0.314 S/m.

And the viscosity (298 K, x1 = 0.05)?
The viscosity was 73 mPa·s.

And the electrical conductivity (298 K, x1 = 0.1)?
The electrical conductivity was 0.227 S/m.

And the viscosity (298 K, x1 = 0.1)?
Its viscosity is 107.9 mPa·s.

What about the electrical conductivity (298 K, x1 = 0.2) of the same molecule?
The electrical conductivity was 0.08 S/m.

And the viscosity (298 K, x1 = 0.2)?
Its viscosity is 379 mPa·s.

And the electrical conductivity (303 K, x1 = 0.05)?
Its electrical conductivity is 0.372 S/m.

What about the viscosity (303 K, x1 = 0.05) of the same molecule?
Its viscosity is 62.2 mPa·s.

And the electrical conductivity (303 K, x1 = 0.2)?
The electrical conductivity was 0.101 S/m.

And the viscosity (303 K, x1 = 0.2)?
Its viscosity is 312 mPa·s.

What about the electrical conductivity (308 K, x1 = 0.05) of the same molecule?
The electrical conductivity was 0.442 S/m.

What about the viscosity (308 K, x1 = 0.05) of the same molecule?
Its viscosity is 50.5 mPa·s.

And the electrical conductivity (308 K, x1 = 0.1)?
The electrical conductivity was 0.334 S/m.

What about the viscosity (308 K, x1 = 0.1) of the same molecule?
Its viscosity is 73 mPa·s.

And the electrical conductivity (308 K, x1 = 0.2)?
Its electrical conductivity is 0.127 S/m.

And the viscosity (308 K, x1 = 0.2)?
The viscosity was 243 mPa·s.

What about the electrical conductivity (313 K, x1 = 0.05) of the same molecule?
Its electrical conductivity is 0.523 S/m.

What about the viscosity (313 K, x1 = 0.05) of the same molecule?
Its viscosity is 42.4 mPa·s.

And the electrical conductivity (313 K, x1 = 0.1)?
The electrical conductivity was 0.401 S/m.

What about the viscosity (313 K, x1 = 0.1) of the same molecule?
The viscosity was 60.7 mPa·s.

And the electrical conductivity (313 K, x1 = 0.2)?
Its electrical conductivity is 0.156 S/m.

And the viscosity (313 K, x1 = 0.2)?
Its viscosity is 191 mPa·s.

And the electrical conductivity (318 K, x1 = 0.05)?
The electrical conductivity was 0.611 S/m.

And the viscosity (318 K, x1 = 0.05)?
The viscosity was 35.8 mPa·s.

And the electrical conductivity (318 K, x1 = 0.1)?
The electrical conductivity was 0.513 S/m.

And the viscosity (318 K, x1 = 0.1)?
Its viscosity is 50.6 mPa·s.

What about the electrical conductivity (323 K, x1 = 0.2) of the same molecule?
The electrical conductivity was 0.234 S/m.

And the viscosity (323 K, x1 = 0.2)?
The viscosity was 121.8 mPa·s.

What about the viscosity (328 K, x1 = 0.05) of the same molecule?
Its viscosity is 23.6 mPa·s.

And the viscosity (328 K, x1 = 0.2)?
Its viscosity is 99.9 mPa·s.
